Data: the supplement of paper PMC7017272
± gives the standard deviation of the averaged measurements.

Experiments:
Details in all cases: treatment time: 3 days
UT-SCC-24A [1] = assay: drug sensitivity score (DSS); higher = more sensitive
Procedure: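 HNSCC cell lines (500 cells/well, 384-well) were cultured on plastic, on top of (2D) or embedded (3D) in Matrigel or human leiomyoma matrix Myogel (500 ug/mL; Myogel 3D mixed with rat collagen I). Cells were treated for 3 days with 5 ten-fold concentrations of each drug, and viability was read by CellTiter-Glo. Suffixes _1/_2/_3 on drug names are replicates.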

UT-SCC-106A [2] = assay: maximal % inhibition of viability relative to DMSO; higher = stronger effect
Summary of the method: (§1)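 Using 384-well plates, 500 cells/well of HPV-negative HNSCC cell lines were grown on plastic, on 500 µg/mL Matrigel or Myogel coatings, or embedded in Matrigel or Myogel with rat collagen I. They were treated with compounds at five 10-fold concentrations for 3 days, and luminescence from CellTiter-Glo 2.0 was normalised to vehicle (0.1% DMSO) and cell-killing control wells. IC50, maximal inhibition and drug sensitivity score were derived from percent-inhibition dose–response curves in the FIMM pipeline.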

UT-SCC-14 [3] = assay: as above
Summary of the method: as §1

UT-SCC-28 [4] = assay: as above
Summary of the method: as §1

UT-SCC-24A [5] = assay: maximal % inhibition of viability relative to DMSO; higher = stronger effect
Procedure: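 HNSCC cell lines (500 cells/well, 384-well) were cultured on plastic, on top of (2D) or embedded (3D) in Matrigel or human leiomyoma matrix Myogel (500 ug/mL; Myogel 3D mixed with rat collagen I). Cells were treated for 3 days with 5 ten-fold concentrations of each drug, and viability was read by CellTiter-Glo. Viability was normalised to DMSO (0% inhibition) and 100 uM benzethonium chloride (100% inhibition) controls and fitted with the FIMM DSRT pipeline to give IC50 (nM), maximal % inhibition and the drug sensitivity score (DSS). Suffixes _1/_2/_3 on drug names are replicates.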

UT-SCC-106A [6] = assay: drug sensitivity score (DSS); higher = more sensitive; extreme values may be limits of the assay
Summary of the method: as §1

UT-SCC-14 [7] = assay: as above
Summary of the method: as §1

UT-SCC-24B = assay: as above
Summary of the method: as §1

UT-SCC-28 [8] = assay: as above
Summary of the method: as §1

UT-SCC-40 = assay: as above
Summary of the method: as §1

UT-SCC-42A = assay: as above
Summary of the method: as §1

UT-SCC-42B = assay: as above
Summary of the method: as §1

UT-SCC-44 = assay: as above
Summary of the method: as §1

UT-SCC-73 = assay: as above
Summary of the method: as §1

UT-SCC-81 = assay: as above
Summary of the method: as §1

UT-SCC-8 = assay: as above
Summary of the method: as §1

[9] = culture condition: embedded in Matrigel
[10] = culture condition: embedded in Myogel + collagen I
[11] = culture condition: on top of Matrigel
[12] = culture condition: on top of Myogel
[13] = culture condition: plastic 2D (no matrix)

CO[C@H]1C[C@@H]2CC[C@@H](C)[C@@](O)(O2)C(=O)C(=O)N2CCCC[C@H]2C(=O)O[C@H]([C@H](C)C[C@@H]2CC[C@@H](OCCO)[C@H](OC)C2)CC(=O)[C@H](C)/C=C(\C)[C@@H](O)[C@@H](OC)C(=O)[C@H](C)C[C@H](C)/C=C/C=C/C=C/1C [Everolimus]
drug sensitivity score (UT-SCC-24A [1]; [9]): 3.6 ± 6.2 DSS | drug sensitivity score (UT-SCC-24A [1]; [10]): 6.43 ± 3 DSS | drug sensitivity score (UT-SCC-24A [1]; [11]): 2.93 ± 2.3 DSS | drug sensitivity score (UT-SCC-24A [1]; [12]): 2.57 ± 0.21 DSS | drug sensitivity score (UT-SCC-24A [1]; [13]): 2.57 ± 0.25 DSS | maximal % inhibition of viability (UT-SCC-106A [2]; [9]): 30.8 ± 12% | maximal % inhibition of viability (UT-SCC-106A [2]; [10]): 20.6 ± 4.6% | maximal % inhibition of viability (UT-SCC-106A [2]; [11]): 40.7 ± 13% | maximal % inhibition of viability (UT-SCC-106A [2]; [12]): 21.3 ± 5% | maximal % inhibition of viability (UT-SCC-106A [2]; [13]): 50.1 ± 11% | maximal % inhibition of viability (UT-SCC-14 [3]; [9]): 58 ± 10% | maximal % inhibition of viability (UT-SCC-14 [3]; [10]): 50.9 ± 5.5% | maximal % inhibition of viability (UT-SCC-14 [3]; [11]): 47.6 ± 5.8% | maximal % inhibition of viability (UT-SCC-14 [3]; [12]): 42.6 ± 0.36% | maximal % inhibition of viability (UT-SCC-14 [3]; [13]): 46.4 ± 8.9% | maximal % inhibition of viability (UT-SCC-28 [4]; [9]): 28.6 ± 11% | maximal % inhibition of viability (UT-SCC-28 [4]; [10]): 27.7 ± 7.6% | maximal % inhibition of viability (UT-SCC-28 [4]; [11]): 28.2 ± 6.3% | maximal % inhibition of viability (UT-SCC-28 [4]; [13]): 28.1 ± 8.8% | maximal % inhibition of viability (UT-SCC-24A [5]; [9]): 51.3 ± 40% | maximal % inhibition of viability (UT-SCC-24A [5]; [10]): 33.2 ± 13% | maximal % inhibition of viability (UT-SCC-24A [5]; [11]): 31.5 ± 13% | maximal % inhibition of viability (UT-SCC-24A [5]; [12]): 26.8 ± 1.4% | maximal % inhibition of viability (UT-SCC-24A [5]; [13]): 28.2 ± 2.9% | drug sensitivity score (UT-SCC-106A [6]; [9]): 1.27 ± 0.31 DSS | drug sensitivity score (UT-SCC-106A [6]; [10]): 2.77 ± 0.81 DSS | drug sensitivity score (UT-SCC-106A [6]; [11]): 1.53 ± 1.4 DSS | drug sensitivity score (UT-SCC-106A [6]; [12]): 1.33 ± 0.6 DSS | drug sensitivity score (UT-SCC-106A [6]; [13]): 7.3 ± 6 DSS | drug sensitivity score (UT-SCC-14 [7]; [9]): 8.37 ± 3.1 DSS | drug sensitivity score (UT-SCC-14 [7]; [10]): 10.2 ± 3.4 DSS | drug sensitivity score (UT-SCC-14 [7]; [11]): 5.67 ± 2.2 DSS | drug sensitivity score (UT-SCC-14 [7]; [12]): 7.77 ± 2.7 DSS | drug sensitivity score (UT-SCC-14 [7]; [13]): 7.63 ± 2.4 DSS | drug sensitivity score (UT-SCC-24B; [9]): 1.17 ± 1.5 DSS | drug sensitivity score (UT-SCC-24B; [10]): 5.5 ± 2.1 DSS | drug sensitivity score (UT-SCC-24B; [11]): 1.93 ± 1.7 DSS | drug sensitivity score (UT-SCC-24B; [12]): 4.07 ± 1.6 DSS | drug sensitivity score (UT-SCC-24B; [13]): 2.43 ± 1.4 DSS | drug sensitivity score (UT-SCC-28 [8]; [9]): 3.57 ± 1.1 DSS | drug sensitivity score (UT-SCC-28 [8]; [10]): 3.37 ± 1.5 DSS | drug sensitivity score (UT-SCC-28 [8]; [11]): 2.63 ± 1.4 DSS | drug sensitivity score (UT-SCC-28 [8]; [13]): 4.63 ± 1.6 DSS | drug sensitivity score (UT-SCC-40; [9]): 3.83 ± 6 DSS | drug sensitivity score (UT-SCC-40; [10]): 3.13 ± 3.1 DSS | drug sensitivity score (UT-SCC-40; [11]): 2.1 ± 1.3 DSS | drug sensitivity score (UT-SCC-40; [12]): 1.8 ± 1.9 DSS | drug sensitivity score (UT-SCC-40; [13]): 1.73 ± 1.6 DSS | drug sensitivity score (UT-SCC-42A; [9]): 0.933 ± 1.1 DSS | drug sensitivity score (UT-SCC-42A; [10]): 3.87 ± 0.76 DSS | drug sensitivity score (UT-SCC-42A; [11]): 2.6 ± 0.4 DSS | drug sensitivity score (UT-SCC-42A; [12]): 3.27 ± 0.83 DSS | drug sensitivity score (UT-SCC-42A; [13]): 2.07 ± 0.91 DSS | drug sensitivity score (UT-SCC-42B; [9]): 0 DSS | drug sensitivity score (UT-SCC-42B; [11]): 0.733 ± 0.67 DSS | drug sensitivity score (UT-SCC-42B; [12]): 0.433 ± 0.38 DSS | drug sensitivity score (UT-SCC-42B; [13]): 0.133 ± 0.12 DSS | drug sensitivity score (UT-SCC-44; [9]): 2.47 ± 3.5 DSS | drug sensitivity score (UT-SCC-44; [10]): 5.4 ± 0.36 DSS | drug sensitivity score (UT-SCC-44; [11]): 6.83 ± 1.1 DSS | drug sensitivity score (UT-SCC-44; [12]): 7.67 ± 0.12 DSS | drug sensitivity score (UT-SCC-44; [13]): 5.07 ± 2 DSS | drug sensitivity score (UT-SCC-73; [9]): 2.37 ± 1.2 DSS | drug sensitivity score (UT-SCC-73; [10]): 8.4 ± 7.2 DSS | drug sensitivity score (UT-SCC-73; [11]): 3.93 ± 1.3 DSS | drug sensitivity score (UT-SCC-73; [12]): 4.27 ± 1.7 DSS | drug sensitivity score (UT-SCC-73; [13]): 3.23 ± 0.51 DSS | drug sensitivity score (UT-SCC-81; [9]): 7.87 ± 6.4 DSS | drug sensitivity score (UT-SCC-81; [10]): 9.2 ± 0.62 DSS | drug sensitivity score (UT-SCC-81; [11]): 5 ± 0.76 DSS | drug sensitivity score (UT-SCC-81; [12]): 7.07 ± 1.8 DSS | drug sensitivity score (UT-SCC-81; [13]): 7.8 ± 0.44 DSS | drug sensitivity score (UT-SCC-8; [9]): 5.3 ± 2.3 DSS | drug sensitivity score (UT-SCC-8; [10]): 4.2 ± 6.5 DSS | drug sensitivity score (UT-SCC-8; [11]): 5.8 ± 6 DSS | drug sensitivity score (UT-SCC-8; [12]): 7.9 ± 6 DSS | drug sensitivity score (UT-SCC-8; [13]): 6.57 ± 3.2 DSS
